Measured values reported in paper PMC7594079, “Insights into the Function and Evolution of Taste 1 Receptor Gene Family in the Carnivore Fish Gilthead Seabream (Sparus aurata)” (International Journal of Molecular Sciences, 2020).

Tests used:
[1] = test system: saT1R1/R1; settings: cells transfected with saT1R1 alone (double amount)
From the text: (§1) Previous studies have reported that heterodimeric coupling of saT1R complexes may not be the only mode of functional activation since these subunits, especially T1R3, can also couple as homodimers.
(§2) Figure 8 Comparisons of proline Log-dose response curves of activation in heterologous transfections of hetero- and homo-dimeric saT1R combinations of saT1R1/R3 (black dots), saT1R2a/R3 (white dots), saT1R2b/3 (black triangles), saT1R1/R1 (white triangles) and saT1R3/R3 (black squares). Response is measured as RLU mean ± SEM of four independent determinations normalized to the mean response of the same transfections stimulated with reduced assay medium (BME + 1% FBS), expressed as percentage relative to basal levels (BL).
(§3) saT1Rs (saT1R1, saT1R2a, saT1R2b saT1R3) and saGαi1-2 genes were RT-PCR amplified using 5’ and 3’ flanking primers carrying HindIII and XhoI restriction sites, respectively. Gel-purified fragments were cloned into pGEM-T Easy vectors, re-sequenced, digested and subcloned into pcDNA™3 (Invitrogen, Carlsbad, CA, USA). Effective saT1R cloning into pcDNA™3 was further verified by HindIII/XhoI digestion. […]

[2] = test system: saT1R3/R3; settings: cells transfected with saT1R3 alone (double amount)
From the text: as §1, §2, §3

O=C(O)[C@@H]1CCCN1 [Pro, Proline]
response to Pro stimulation [1]: did not respond | response to Pro stimulation [2]: did not respond
